In patent US8076487B2, “Pyridone derivative and herbicide” (Kumiai Chemical Industry Co., Ltd., priority 2006, dated 2011):

How the values were obtained:
Format in all cases: in vivo
[1] = system: Japanese bulrush (Scirpus juncoides Roxb.); experiment: Test Example 1: herbicidal effect by soil application to paddy field; details: paddy field soil application; active ingredient 1,000 g per 1 hectare; wettable powder added dropwise to water surface the day after sowing; examined on the 21st day after application
Procedure, shortened: (§1)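 Under greenhouse conditions, seeds sown on puddled paddy soil in 100 cm2 pots under 3 cm of standing water received the test compound; injury was assessed with a standard scoring scheme three weeks (day 21) after treatment.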

[2] = system: early watergrass (Echinochloa oryzicola Vasing); experiment: as above; details: paddy field soil application; active ingredient 1,000 g per 1 hectare; wettable powder added dropwise to water surface the day after sowing; examined on the 21st day after application
Procedure, shortened: as §1

[3] = system: heartshape false pickerelweed (Monochoria vaginalis (Burm.f.) C.Presl); experiment: as above; details: paddy field soil application; active ingredient 1,000 g per 1 hectare; wettable powder added dropwise to water surface the day after sowing; examined on the 21st day after application
Procedure, shortened: as §1

[4] = system: barnyardgrass (Echinochloa crus-galli (L.) P. Beauv. var. crus-galli); experiment: Test Example 2: herbicidal effect by soil application to upland field; details: soil surface spray, upland field soil, 1,000 g active ingredient per hectare, 21st day after application
Procedure, shortened: (§2)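 Using a small sprayer, we treat the soil surface of pots just after sowing and covering seeds. The aqueous wettable powder supplies 1,000 g a.i./ha in 1,000 L water/ha; after greenhouse growth, injury is scored on day 21 using a standard rating.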

[5] = system: green foxtail (Setaria viridis (L.) P. Beauv.); experiment: as above; details: soil surface spray, upland field soil, 1,000 g active ingredient per hectare, 21st day after application
Procedure, shortened: as §2

[6] = system: slender amaranth (Amaranthus viridis L.); experiment: as above; details: soil surface spray, upland field soil, 1,000 g active ingredient per hectare, 21st day after application
Procedure, shortened: as §2

[7] = system: velvetleaf (Abutilon theophrasti medicus); experiment: as above; details: soil surface spray, upland field soil, 1,000 g active ingredient per hectare, 21st day after application
Procedure, shortened: as §2

[8] = system: barnyardgrass (Echinochloa crus-galli (L.) P. Beauv. var. crus-galli); experiment: Test Example 3: herbicidal effect by application to upland field (foliage treatment); details: 14th day after application; for herbicidal effect, Barnyardgrass: foliage treatment, 1,000 g active ingredient per 1 hectare, greenhouse; for herbicidal effect (index), Barnyardgrass: foliage treatment, plants grown two weeks, 1,000 g active ingredient per hectare
Procedure, shortened: (§3)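 Dose 1,000 g active ingredient/ha, sprayed as diluted wettable powder over entire plants two weeks after sowing in field soil. Kept in greenhouse; herbicidal effect graded on a standard scale on day 14.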

[9] = system: green foxtail (Setaria viridis (L.) P. Beauv.); experiment: as above; details: 14th day after application; for herbicidal effect, Green Foxtail: foliage treatment, 1,000 g active ingredient per 1 hectare, greenhouse; for herbicidal effect (index), Green Foxtail: foliage treatment, plants grown two weeks, 1,000 g active ingredient per hectare
Procedure, shortened: as §3

[10] = system: slender amaranth (Amaranthus viridis L.); experiment: as above; details: 14th day after application; for herbicidal effect, Slender Amaranth: foliage treatment, 1,000 g active ingredient per 1 hectare, greenhouse; for herbicidal effect (index), Slender Amaranth: foliage treatment, plants grown two weeks, 1,000 g active ingredient per hectare
Procedure, shortened: as §3

[11] = system: velvetleaf (Abutilon theophrasti medicus); experiment: as above; details: 14th day after application; for herbicidal effect, Velvetleaf: foliage treatment, 1,000 g active ingredient per 1 hectare, greenhouse; for herbicidal effect (index), Velvetleaf: foliage treatment, plants grown two weeks, 1,000 g active ingredient per hectare
Procedure, shortened: as §3

Structure (SMILES)	herbicidal effect, Scirpus juncoides Roxb. [1]	herbicidal effect, Echinochloa oryzicola Vasing [2]	herbicidal effect, Monochoria vaginalis (Burm. f.) C. Presl [3]	herbicidal effect (index), Barnyardgrass [4]	herbicidal effect (index), Green Foxtail [5]	herbicidal effect (index), Slender Amaranth [6]	herbicidal effect (index), Velvetleaf [7]	herbicidal effect, Barnyardgrass [8]	herbicidal effect, Green Foxtail [9]	herbicidal effect, Slender Amaranth [10]	herbicidal effect, Velvetleaf [11]	herbicidal effect (index), Barnyardgrass [8]	herbicidal effect (index), Green Foxtail [9]	herbicidal effect (index), Slender Amaranth [10]	herbicidal effect (index), Velvetleaf [11]
CCOCCn1c(C(F)(F)F)ccc(C(=O)c2cnn(C)c2OC(=O)c2ccccc2)c1=O [IV-35]	5 (90% or more of herbicidal effect and crop phytotoxicity)	5 (90% or more of herbicidal effect and crop phytotoxicity)	5 (90% or more of herbicidal effect and crop phytotoxicity)	5 (90% or more of herbicidal effect and crop phytotoxicity)	5 (90% or more of herbicidal effect and crop phytotoxicity)	5 (90% or more of herbicidal effect and crop phytotoxicity)	5 (90% or more of herbicidal effect and crop phytotoxicity)	5 (90% or more of herbicidal effect and crop phytotoxicity)	5 (90% or more of herbicidal effect and crop phytotoxicity)	5 (90% or more of herbicidal effect and crop phytotoxicity)	5 (90% or more of herbicidal effect and crop phytotoxicity)				
CC(=O)Oc1c(C(=O)c2ccc(C(F)(F)F)n(C)c2=O)cnn1C [IV-174]	5 (90% or more of herbicidal effect and crop phytotoxicity)	5 (90% or more of herbicidal effect and crop phytotoxicity)	5 (90% or more of herbicidal effect and crop phytotoxicity)	5 (90% or more of herbicidal effect and crop phytotoxicity)	5 (90% or more of herbicidal effect and crop phytotoxicity)	5 (90% or more of herbicidal effect and crop phytotoxicity)	5 (90% or more of herbicidal effect and crop phytotoxicity)	5 (90% or more of herbicidal effect and crop phytotoxicity)	5 (90% or more of herbicidal effect and crop phytotoxicity)	5 (90% or more of herbicidal effect and crop phytotoxicity)	5 (90% or more of herbicidal effect and crop phytotoxicity)				
C[S+]([O-])CCCn1c(C(F)(F)F)ccc(C(=O)C2=C(O)C3CCC(C3)C2=O)c1=O (centres unmarked) [III-32]	5 (90% or more of herbicidal effect and crop phytotoxicity)	5 (90% or more of herbicidal effect and crop phytotoxicity)	5 (90% or more of herbicidal effect and crop phytotoxicity)	5 (90% or more of herbicidal effect and crop phytotoxicity)	5 (90% or more of herbicidal effect and crop phytotoxicity)	5 (90% or more of herbicidal effect and crop phytotoxicity)	5 (90% or more of herbicidal effect and crop phytotoxicity)	5 (90% or more of herbicidal effect and crop phytotoxicity)	5 (90% or more of herbicidal effect and crop phytotoxicity)	5 (90% or more of herbicidal effect and crop phytotoxicity)	5 (90% or more of herbicidal effect and crop phytotoxicity)				
O=C1CCCC(O)=C1C(=O)c1ccc(C(F)(F)F)n(-c2ccc(C(F)(F)F)cc2)c1=O [I-86]	5 (90% or more of herbicidal effect and crop phytotoxicity)	5 (90% or more of herbicidal effect and crop phytotoxicity)	5 (90% or more of herbicidal effect and crop phytotoxicity)	5 (90% or more of herbicidal effect and crop phytotoxicity)	5 (90% or more of herbicidal effect and crop phytotoxicity)	5 (90% or more of herbicidal effect and crop phytotoxicity)	5 (90% or more of herbicidal effect and crop phytotoxicity)					5 (90% or more of herbicidal effect and crop phytotoxicity)	5 (90% or more of herbicidal effect and crop phytotoxicity)	5 (90% or more of herbicidal effect and crop phytotoxicity)	5 (90% or more of herbicidal effect and crop phytotoxicity)
COc1cc(-n2c(C(F)(F)F)ccc(C(=O)C3=C(O)CCCC3=O)c2=O)ccc1Cl [I-108]	5 (90% or more of herbicidal effect and crop phytotoxicity)	5 (90% or more of herbicidal effect and crop phytotoxicity)	5 (90% or more of herbicidal effect and crop phytotoxicity)	5 (90% or more of herbicidal effect and crop phytotoxicity)	4 (70 to less than 90% of herbicidal effect and crop phytotoxicity)	5 (90% or more of herbicidal effect and crop phytotoxicity)	5 (90% or more of herbicidal effect and crop phytotoxicity)					5 (90% or more of herbicidal effect and crop phytotoxicity)	5 (90% or more of herbicidal effect and crop phytotoxicity)	5 (90% or more of herbicidal effect and crop phytotoxicity)	5 (90% or more of herbicidal effect and crop phytotoxicity)
O=C1CCCC(O)=C1C(=O)c1ccc(C(F)(F)F)n(-c2cccc(C(F)(F)F)c2)c1=O [I-85]	5 (90% or more of herbicidal effect and crop phytotoxicity)	5 (90% or more of herbicidal effect and crop phytotoxicity)	5 (90% or more of herbicidal effect and crop phytotoxicity)	5 (90% or more of herbicidal effect and crop phytotoxicity)	5 (90% or more of herbicidal effect and crop phytotoxicity)	5 (90% or more of herbicidal effect and crop phytotoxicity)	5 (90% or more of herbicidal effect and crop phytotoxicity)					5 (90% or more of herbicidal effect and crop phytotoxicity)	5 (90% or more of herbicidal effect and crop phytotoxicity)	5 (90% or more of herbicidal effect and crop phytotoxicity)	5 (90% or more of herbicidal effect and crop phytotoxicity)
O=C1CCCC(O)=C1C(=O)c1ccc(C(F)(F)F)n(C2CCCC2)c1=O [I-18]	5 (90% or more of herbicidal effect and crop phytotoxicity)	5 (90% or more of herbicidal effect and crop phytotoxicity)	5 (90% or more of herbicidal effect and crop phytotoxicity)	5 (90% or more of herbicidal effect and crop phytotoxicity)	5 (90% or more of herbicidal effect and crop phytotoxicity)	5 (90% or more of herbicidal effect and crop phytotoxicity)	5 (90% or more of herbicidal effect and crop phytotoxicity)					5 (90% or more of herbicidal effect and crop phytotoxicity)	5 (90% or more of herbicidal effect and crop phytotoxicity)	5 (90% or more of herbicidal effect and crop phytotoxicity)	5 (90% or more of herbicidal effect and crop phytotoxicity)
